“Also recorded” adds a separate entry of the source.
Assays:
[1] = tested on: MCF-7, a human breast cancer cell line; assay: Cytotoxicity (ATPLite cell growth inhibition), Example 1, MCF-7 cells; format: cell-based; conditions: MCF7a, 72 hours exposure, ATPLite assay, mean ± standard deviation, read-out: IC50 (concentration that inhibited growth by 50%)
Protocol: (§1) A. MCF-7, a human breast cancer cell line was obtained from ATCC (Catalog number: HTB-22)
(§2) MCF-7 cells were supplemented additionally with 10 μg/ml recombinant human insulin.
(§3) All compounds were tested triplicate.

[2] = tested on: NCI/ADR-RES, a multi drug resistant cell line over-expressing MDR-1; assay: Cytotoxicity (ATPLite cell growth inhibition), Example 1, MDR-1 over-expressing cells; format: cell-based; conditions: Homo sapiens, MDR1; NCI/ADR-RES cells (MDR-1 over-expressing), 72 hours exposure, ATPLite assay, mean ± standard deviation; read-out: IC50 (concentration that inhibited growth by 50%)
Protocol: B. NCl/ADR-RES, a multi drug resistant cell line over-expressing MDR-1 was obtained from NCl, Frederick, Md. This cell line has previously been called MCF-7/ADR by NCl.
as §2, §3

[3] = tested on: MCF-7, a human breast cancer cell line; assay: Cytotoxicity (ATPLite cell growth inhibition), Example 3, MCF-7 cells; format: cell-based; conditions: MCF7a, 72 hours exposure, ATPLite assay, mean ± standard deviation, read-out: IC50 (concentration that inhibited growth by 50%)
Protocol: as §1
(§4) All compounds were tested in triplicate.

[4] = tested on: MCF-7/MX, a multi drug resistant cell line over-expressing BCRP; assay: Cytotoxicity (ATPLite cell growth inhibition), Example 3, BCRP over-expressing cells; conditions: for IC50: Homo sapiens, MCF7/MX, 72 h, read-out: IC50 (concentration that inhibited growth by 50%); for Difference in cytotoxic activity between normal (MCF-7) and BCRP over-expressing (MCF-7/MX) cell line: ratio of IC50 MCF-7/MX versus MCF-7
Protocol: Methods: The tumor cells were plated at 5,000 cells/well in a 96 well tissue culture plate and grown for 24 hours at 37° C. The cells were then exposed to various concentrations of 5-chloro-N-[2-(4-chloro-naphtalen-1-yloxy)-5-trifluoromethyl-phenyl]-2-hydroxy-benzamide, Camptothecin or Epirubicin for 72 hours and the inhibition of cell growth due to exposure to the drug was determined using the ATPLite assay. Data are expressed as the concentration that inhibited growth by 50%.
Stock solutions of compounds dissolved in DMSO were used to prepare compound dilutions for activity determination. 5-chloro-N-[2-(4-chloro-naphtalen-1-yloxy)-5-trifluoromethyl-phenyl]-2-hydroxy-benzamide was tested at a final concentration of 100 μM, 33.3 μM, 11.1 μM, 3.7 μM, 1.23 μM, 0.4 μM and 0.13 μM for both cell lines. CPT-11 was tested at 1 μM, 0.33 μM, 0.1 μM, 0.04 μM, 0.012 μM, 0.004 μM and 0.001 μM in MCF-7 cells and at 10 μM, 3.3 μM, 1.1 μM, 0.37 μM, 0.12 μM, 0.04 μM and 0.013 μM in MCF-7/MX cells. Epirubicin was tested at 10 μM, 3.3 μM, 1.1 μM, 0.37 μM, 0.12 μM, 0.04 μM and 0.013 μM for MCF-7 cells and at 100 μM, 33.3 μM, 11.1 μM, 3.7 μM, 1.23 μM, 0.4 μM and 0.13 μM for MCF-7/MX cells. The final concentration of DMSO in all cases was adjusted to 0.2% v/v.
Both cell lines were cultured in RPMI-1640 supplemented with 10% fetal bovine serum, 2 mM Glutamax, 1 mM sodium pyruvate, 0.1 mM non-essential amino acids, 10 μg/ml recombinant human insulin and 10 mM Hepes. All cell lines were grown at 37° C. in a humidified 5% CO2 atmosphere.
For testing the effect of compounds on cell growth, exponentially growing cells were harvested by trypsinization and plated in fresh growth medium at 50,000 cells/ml, one hundred microlitres cell suspension per well, in a 96-well flat-bottomed microtiter plate (Corning, Costar 3595). Twenty-four hours later, culture medium was replaced with fresh growth medium and varying concentrations of test compound.
For both cell lines, cells were incubated with compound for three days and cellular viability was determined at the end of the incubation by measuring intracellular ATP with ATPLite assay system. All compounds were tested in triplicate.
Effect of compounds on cell viability was calculated by comparing the ATP levels of cells exposed to test compound with those of cells exposed to DMSO. A semi-log plot of relative ATP levels versus compound concentration was used to calculate the compound concentration required to inhibit growth by 50% (IC50). Data was analyzed by Prism software (GraphPad; San Diego, Calif.) by fitting it to a sigmoidal dose response curve. The IC50 values obtained for individual data sets were combined to obtain a mean IC50 and standard deviation of the mean.

[5] = tested on: MCF-7, a human breast cancer cell line; assay: Cytotoxicity (ATPLite cell growth inhibition), Example 2, MCF-7 cells; format: cell-based; conditions: MCF7a, 72 hours exposure, ATPLite assay, mean ± standard deviation, read-out: IC50 (concentration that inhibited growth by 50%)
Protocol: as §1, §4

[6] = tested on: MCF-7/VP, a multi drug resistant cell line over-expressing MRP-1; assay: Cytotoxicity (ATPLite cell growth inhibition), Example 2, MRP-1 over-expressing cells; format: cell-based; conditions: Homo sapiens, MCF7-VP; MCF-7/VP cells (MRP-1 over-expressing), 72 hours exposure, ATPLite assay, mean ± standard deviation; read-out: IC50 (concentration that inhibited growth by 50%)
From the text: Over-expression of the product of the ABCC1 gene encoding the multidrug resistance associated protein 1 confers resistance to a wide variety of agents including etoposide, methotrexate, cisplatins and anthracyclines. […] MCF-7/VP cells, a MCF-7 derivative selected for resistance to etoposide, over-express the MRP-1 protein (1).
B. MCF-7/VP, a multi drug resistant cell line over-expressing MRP-1 was obtained from Dr. Erasmus Schneider, Wadsworth Center, NYS Dept. of Health, Albany, N.Y. 12237.
as §4

Oral bioavailability = format: in vivo; conditions: oral administration

Compound | IC50 [1] [nM] | IC50 [2] [nM] | IC50 [3] [nM] | IC50 [4] [nM] | Difference in cytotoxic activity between normal (MCF-7) and BCRP over-expressing (MCF-7/MX) cell line [4] | IC50 [5] [nM] | IC50 [6] [nM] | Bioavailability when administered orally (Oral bioavailability)
CC(=O)O[C@@]12CO[C@@H]1C[C@H](O)[C@@]1(C)C(=O)[C@H](O)C3=C(C)[C@@H](OC(=O)[C@H](O)[C@@H](NC(=O)OC(C)(C)C)c4ccccc4)C[C@@](O)([C@@H](OC(=O)c4ccccc4)[C@H]21)C3(C)C [Taxotere ®] | 0.5 | 428 |  |  |  |  |  | 
CC[C@@]1(O)C(=O)OCc2c1cc1n(c2=O)Cc2cc3ccccc3nc2-1 [Camptothecin ®] |  |  | 21.9 | 174 | one-eighth |  |  | 
COc1cccc2c1C(=O)c1c(O)c3c(c(O)c1C2=O)C[C@@](O)(C(=O)CO)C[C@@H]3O[C@H]1C[C@H](N)[C@@H](O)[C@H](C)O1 [Epirubicin] |  |  | 150 | 1120 | one-seventh | 150 | 958 | 
O=C(Nc1cc(C(F)(F)F)ccc1Oc1ccc(Cl)c2ccccc12)c1cc(Cl)ccc1O [5-chloro-N-[2-(4-chloro-naphtalen-1-yloxy)-5-trifluoromethyl-phenyl]-2-hydroxy-benzamide] | 739 | 754 | 739 | 1480 | two-fold; also recorded: twofold | 592 | 800 | low bioavailability
CC[C@]1(O)C[C@@H]2CN(CCc3c([nH]c4ccccc34)[C@@](C(=O)OC)(c3cc4c(cc3OC)N(C)[C@H]3[C@@](O)(C(=O)OC)[C@H](OC(C)=O)[C@]5(CC)C=CCN6CC[C@]43[C@@H]65)C2)C1 [Vinblastine] | 0.6 | 558 |  |  |  |  |  | 
